# Data from US20260207585A1, “METHODS AND COMPOSITIONS FOR THE TREATMENT OF PARKINSON'S DISEASE, HUNTINGTON'S DISEASE, AMYOTROPHIC LATERAL SCLEROSIS, AND LEARNING DISORDERS” (Cedars-Sinai Medical Center, priority 2022, published 2026).
# Where two headings read alike, the source gives them in different places.
# Experiments:
# ASH1L = ASH1L (Homo sapiens, UniProt Q9NR48); assay: Methyltransferase inhibition panel: ASH1L; format: biochemical
# Description: (§1) The ability of ETP69 to inhibit methyltransferases was tested.
# DNMT3b/3L = DNMT3b/3L (Homo sapiens, UniProt Q9UBC3); assay: Methyltransferase inhibition panel: DNMT3b/3L; format: biochemical
# Description: as §1
# EZH2 Complex = EZH2 Complex (Homo sapiens, UniProt Q15910); assay: Methyltransferase inhibition panel: EZH2 Complex; format: biochemical; conditions: NT1721 20 μM; substrate Core Histone 0.05 mg/mL
# Description: as §1
# METTL21A = METTL21A (Homo sapiens, UniProt Q8WXB1); assay: Methyltransferase inhibition panel: METTL21A; format: biochemical
# Description: as §1
# MLL3 Complex = MLL3 Complex (Homo sapiens, UniProt Q8NEZ4); assay: Methyltransferase inhibition panel: MLL3 Complex; format: biochemical
# Description: as §1
# NRMT1 = molecular target: T1, NRMT1 (Homo sapiens, UniProt Q9BV86); assay: Methyltransferase inhibition panel: NRMT1; format: biochemical
# T1 sequence (Q9BV86 1-223): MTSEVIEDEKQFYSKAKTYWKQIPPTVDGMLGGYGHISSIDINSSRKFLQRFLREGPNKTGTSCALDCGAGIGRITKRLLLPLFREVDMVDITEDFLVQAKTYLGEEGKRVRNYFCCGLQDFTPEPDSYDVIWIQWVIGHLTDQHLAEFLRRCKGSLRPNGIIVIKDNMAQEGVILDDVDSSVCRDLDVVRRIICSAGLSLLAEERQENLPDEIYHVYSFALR
# Description: as §1
# PRMT4 = PRMT4 (Homo sapiens, UniProt Q86X55); assay: Methyltransferase inhibition panel: PRMT4; format: biochemical
# Description: as §1
# PRMT8 = PRMT8 (Homo sapiens, UniProt Q9NR22); assay: Methyltransferase inhibition panel: PRMT8; format: biochemical
# Description: as §1
# SMYD2 = SMYD2 (Homo sapiens, UniProt Q9NRG4); assay: Methyltransferase inhibition panel: SMYD2; format: biochemical
# Description: as §1
# H3K9me3 = H3K9me3 staining in cingulate/cerebral cortex and hippocampus; format: in vivo, mice; set-up: reduction of H3K9me3 IR area / reduction of hippocampal H3K9me3 levels: concentration or dose not given beside the values; conditions: for reduction of hippocampal H3K9me3 levels: 15 days after injection; for decrease in neuronal H3K9me3 irradiance: cingulate cortex; for reduction of H3K9me3 IR area: cortex
# Description: The experimental protocol is depicted in FIG. 2A. Mice were treated with ETP69 or DMSO. After 2 days, they were tested on the color X-maze. At day 12, they were tested on the Barnes maze. On day 14, they were tested for fear conditioning. Brain tissue was isolated as depicted for analysis of H3K9me3 staining on days 4 and 15, as depicted in FIG. 2B-2D. Levels of H3K9me3 correlated with the percent of alterations at day 4 as depicted in FIG. 2E. At day 15, H3K9me3 was decreased in mice treated with ETP69 as compared to mice treated with DMSO. Levels of H3K9me3 was decreased in both the cingulate cortex and the hippocampus at 4 and 15 days (FIGS. 2J-2M).
# (§2) The effects of single and repeated ETP69 injections in mice were tested. The experimental timeline is depicted in FIG. 5. Three parallel injection conditions were tested: a single ETP69 condition, a boosted ETP69 injection, and repeated ETP69 injections. The single injection mice received one injection of ETP69 or DMSO at Day 0. The mice that received a boosted injection received one injection of ETP69 or DMSO at day 0 and one injection at day 9. The mice that received repeated injections received 11 injections of ETP69 or DMSO at day 0 or day 9. Both wildtype and AD model (APP/PS1-transgenic) mice were tested.
# AD+ brains were stained for neuronal H3K9me3 and DAPI. Representative images of the cingulate cortex and hippocampus of DMSO and ETP69 treated mice are depicted in FIGS. 8A and 8C, respectively. Neuronal H3K9me3 irradiance in the cingulate cortex is quantified in FIG. 8B. […] H3K9me3 staining in the DG correlated with performance in the Barnes Test, while K3K9me3 staining in the hippocampus was correlated with performance in the fear conditioning test.
# (§3) The effects of ETP69 on cerebral H3K9me3 levels was tested in old mice, in both a neurodegenerative model and WT siblings. The levels of brain H3K9me3 at days 4 (short-term) and 15 (long-term) following i.p. ETP69 injection (S regimen cohorts) were measured. […] These findings indicate that a single dose of ETP69 is sufficient to sustainably reduce H3K9me3 in the brains of old WT and neurodegenerative mice. Consistent with the observations in 18-month-old mice, ETP69 mitigated neuroinflammation, including by reduced ionized calcium-binding adaptor molecule 1 (Iba-1)^+ microgliosis in neurodegenerative mice (40%, p=0.0021; FIG. 16D).
# AD+ mice = assay: Fear conditioning test; format: in vivo
# Description: as §2
# The results of the Open Field Barnes Maze test indicate hippocampal-based spatial memory. FIG. 7A depicts a schematic of the Barnes Maze Test. […] The results of the fear conditioning test indicate spatial memory.
# GFAP = GFAP staining of brain sections; format: in vivo; conditions: AD+ mice; 4 and 15 days
# Source text: ETP69 administration reduced AD-related brain pathology (FIGS. 9A-9C). Brain sections were stained for H3K9me3, 6E10 and GFAP.
# [1] = test system: ionized calcium-binding adaptor molecule 1 (Iba-1); assay: Iba-1 immunoreactivity (microgliosis) in cerebral cortex; format: in vivo; conditions: neurodegenerative mice
# Description: as §3
# Delivery to the brain = conditions: in vivo
# [2] = NT1721 20 μM, substrate Nucleosomes 0.05 mg/mL
# [3] = read-out: Enzyme % Activity (relative to DMSO controls) Data 1
# [4] = read-out: Enzyme % Activity (relative to DMSO controls) Data 2
# Chain of SMYD2 (Q9NRG4 whole entry): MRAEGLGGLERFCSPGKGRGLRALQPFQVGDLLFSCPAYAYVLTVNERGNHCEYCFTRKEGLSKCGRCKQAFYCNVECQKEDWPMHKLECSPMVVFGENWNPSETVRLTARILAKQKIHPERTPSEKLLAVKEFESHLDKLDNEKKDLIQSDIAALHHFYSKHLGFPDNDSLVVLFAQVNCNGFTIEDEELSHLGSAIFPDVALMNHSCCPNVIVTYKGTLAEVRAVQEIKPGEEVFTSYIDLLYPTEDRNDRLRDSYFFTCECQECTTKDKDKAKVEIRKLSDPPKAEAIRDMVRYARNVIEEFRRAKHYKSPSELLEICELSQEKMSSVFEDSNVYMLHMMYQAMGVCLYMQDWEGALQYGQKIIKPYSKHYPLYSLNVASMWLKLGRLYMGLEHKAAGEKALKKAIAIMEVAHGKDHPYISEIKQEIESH
# Chain of MLL3 Complex (Q15291 whole entry): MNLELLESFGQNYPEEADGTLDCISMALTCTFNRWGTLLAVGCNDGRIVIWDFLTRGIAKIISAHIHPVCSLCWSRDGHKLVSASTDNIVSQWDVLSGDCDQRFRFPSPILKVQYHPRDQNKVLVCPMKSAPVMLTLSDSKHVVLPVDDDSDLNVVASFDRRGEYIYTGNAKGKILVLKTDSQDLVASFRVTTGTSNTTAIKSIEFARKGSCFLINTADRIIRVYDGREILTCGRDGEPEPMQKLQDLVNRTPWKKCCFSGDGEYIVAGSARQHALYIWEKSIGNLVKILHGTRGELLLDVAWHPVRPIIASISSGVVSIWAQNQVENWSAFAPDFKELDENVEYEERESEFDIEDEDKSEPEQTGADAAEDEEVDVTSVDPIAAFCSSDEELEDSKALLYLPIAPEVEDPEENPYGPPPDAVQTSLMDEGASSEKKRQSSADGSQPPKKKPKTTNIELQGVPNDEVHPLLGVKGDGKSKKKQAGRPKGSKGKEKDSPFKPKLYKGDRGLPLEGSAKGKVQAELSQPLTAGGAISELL
# Chain of MLL3 Complex (Q8NEZ4 4689-4911): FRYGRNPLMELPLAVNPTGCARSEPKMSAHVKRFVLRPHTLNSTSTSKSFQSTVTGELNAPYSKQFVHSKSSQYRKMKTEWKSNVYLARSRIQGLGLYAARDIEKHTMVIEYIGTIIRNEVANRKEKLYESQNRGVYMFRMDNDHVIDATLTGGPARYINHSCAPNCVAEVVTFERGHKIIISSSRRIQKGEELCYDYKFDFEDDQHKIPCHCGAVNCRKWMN
# Chain of MLL3 Complex (Q9UBL3 96-628, further chain): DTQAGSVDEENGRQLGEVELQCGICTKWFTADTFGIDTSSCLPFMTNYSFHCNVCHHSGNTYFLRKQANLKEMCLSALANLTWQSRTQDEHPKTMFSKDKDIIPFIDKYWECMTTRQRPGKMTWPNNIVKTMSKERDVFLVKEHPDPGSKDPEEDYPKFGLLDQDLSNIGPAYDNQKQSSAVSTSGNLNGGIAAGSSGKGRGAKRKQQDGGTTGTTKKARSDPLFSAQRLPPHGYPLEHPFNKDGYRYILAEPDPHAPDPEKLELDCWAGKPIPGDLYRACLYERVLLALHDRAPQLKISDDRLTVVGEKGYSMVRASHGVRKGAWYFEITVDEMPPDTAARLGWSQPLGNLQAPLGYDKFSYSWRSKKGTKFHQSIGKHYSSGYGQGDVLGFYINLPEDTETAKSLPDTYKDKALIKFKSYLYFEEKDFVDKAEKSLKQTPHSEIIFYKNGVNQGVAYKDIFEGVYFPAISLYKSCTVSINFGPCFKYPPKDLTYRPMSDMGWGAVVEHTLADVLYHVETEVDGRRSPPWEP
# Chain of MLL3 Complex (Q9C005 whole entry, further chain): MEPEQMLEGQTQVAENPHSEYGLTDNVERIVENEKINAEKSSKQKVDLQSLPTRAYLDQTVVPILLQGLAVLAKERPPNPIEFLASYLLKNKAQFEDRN
# Chain of PRMT4 (Q86X55 whole entry): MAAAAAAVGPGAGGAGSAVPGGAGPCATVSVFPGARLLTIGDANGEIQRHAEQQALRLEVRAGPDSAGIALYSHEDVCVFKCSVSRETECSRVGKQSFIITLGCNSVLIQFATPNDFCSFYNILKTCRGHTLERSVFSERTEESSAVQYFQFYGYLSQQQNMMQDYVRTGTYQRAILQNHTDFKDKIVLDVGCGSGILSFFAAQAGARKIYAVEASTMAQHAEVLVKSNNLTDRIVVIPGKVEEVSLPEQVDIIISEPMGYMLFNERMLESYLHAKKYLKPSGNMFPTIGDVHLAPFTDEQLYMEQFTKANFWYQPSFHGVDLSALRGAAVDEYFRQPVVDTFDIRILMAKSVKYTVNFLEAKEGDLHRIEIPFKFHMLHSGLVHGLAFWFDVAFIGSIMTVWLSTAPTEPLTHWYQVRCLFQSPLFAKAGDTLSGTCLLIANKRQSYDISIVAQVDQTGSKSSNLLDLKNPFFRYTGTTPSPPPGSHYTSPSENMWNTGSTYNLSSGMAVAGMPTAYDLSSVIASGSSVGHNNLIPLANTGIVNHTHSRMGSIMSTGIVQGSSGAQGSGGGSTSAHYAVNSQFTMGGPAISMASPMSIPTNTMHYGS
# Chain of METTL21A (Q8WXB1 whole entry): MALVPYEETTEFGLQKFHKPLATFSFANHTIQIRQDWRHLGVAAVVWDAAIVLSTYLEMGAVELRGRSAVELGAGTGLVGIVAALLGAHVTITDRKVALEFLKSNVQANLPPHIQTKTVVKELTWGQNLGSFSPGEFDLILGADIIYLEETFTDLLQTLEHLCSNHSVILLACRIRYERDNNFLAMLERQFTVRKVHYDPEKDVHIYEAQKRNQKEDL
# Chain of PRMT8 (Q9NR22 whole entry): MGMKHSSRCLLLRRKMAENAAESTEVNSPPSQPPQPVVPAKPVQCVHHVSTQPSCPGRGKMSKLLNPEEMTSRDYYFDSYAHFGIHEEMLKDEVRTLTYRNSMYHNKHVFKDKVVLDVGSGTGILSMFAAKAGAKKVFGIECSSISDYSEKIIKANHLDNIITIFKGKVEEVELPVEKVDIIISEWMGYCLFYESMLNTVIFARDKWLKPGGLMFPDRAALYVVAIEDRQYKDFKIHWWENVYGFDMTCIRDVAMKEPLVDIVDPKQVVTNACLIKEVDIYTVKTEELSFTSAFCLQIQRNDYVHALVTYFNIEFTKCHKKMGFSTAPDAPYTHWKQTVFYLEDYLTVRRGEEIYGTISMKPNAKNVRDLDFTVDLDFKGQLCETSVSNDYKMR
compound,measurement,setting,value
"CN1C(=O)[C@@]23C[C@](C)(C#N)[C@H](c4ccc5c(c4)OCO5)N2C(=O)[C@]1(C)SS3 (racemic) [ETP69, Rac-(3S,6S,7S,8aS)-6-(benzo[d][1,3]dioxol-5-yl)-2,3,7-trimethyl-1,4-dioxohexahydro-6H-3,8a-epidithiopyrrolo[1,2-a]pyrazine-7-carbonitrile]",Enzyme % Activity (relative to DMSO controls) Data 1,ASH1L; [2],3.42%
same,Enzyme % Activity (relative to DMSO controls) Data 2,ASH1L; [2],4.17%
same,inhibition relative to DMSO controls,ASH1L; summary of Table 1,at least 7500
same,remaining activity at 20 µM,DNMT3b/3L; [3],113%
same,remaining activity at 20 µM,DNMT3b/3L; [4],111%
same,Enzyme % Activity (relative to DMSO controls) Data 1,EZH2 Complex,98.37%
same,Enzyme % Activity (relative to DMSO controls) Data 2,EZH2 Complex,97.85%
same,remaining activity at 20 µM,METTL21A; [3],78.6%
same,remaining activity at 20 µM,METTL21A; [4],78.5%
same,remaining activity at 20 µM,MLL3 Complex; [3],36.6%
same,remaining activity at 20 µM,MLL3 Complex; [4],32.6%
same,inhibition relative to DMSO controls,MLL3 Complex; summary of Table 1,at least 7500
same,remaining activity at 20 µM,NRMT1; [3],90.5%
same,remaining activity at 20 µM,NRMT1; [4],94.6%
same,remaining activity at 20 µM,PRMT4; [3],115%
same,remaining activity at 20 µM,PRMT4; [4],114%
same,remaining activity at 20 µM,PRMT8; [3],95.7%
same,remaining activity at 20 µM,PRMT8; [4],94.7%
same,remaining activity at 20 µM,SMYD2; [3],4.23%
same,remaining activity at 20 µM,SMYD2; [4],4.97%
same,inhibition relative to DMSO controls,SMYD2; summary of Table 1,at least 7500
same,reduction of hippocampal H3K9me3 levels,"H3K9me3; CA, WT mice",36%
same,reduction of hippocampal H3K9me3 levels,"H3K9me3; CA, neurodegenerative mice",54%
same,reduction of hippocampal H3K9me3 levels,"H3K9me3; DG, neurodegenerative mice",42%
same,Levels of H3K9me3,"H3K9me3; cingulate cortex and hippocampus, 4 and 15 days",decreased
same,decrease in neuronal H3K9me3 irradiance,"H3K9me3; AD+ mice, day 4",40%
same,decrease in neuronal H3K9me3 irradiance,"H3K9me3; AD+ mice, day 14",40%
same,decrease in neuronal H3K9me3 irradiance,"H3K9me3; wildtype mice, day 4",27%
same,reduction of H3K9me3 IR area,"H3K9me3; WT old mice, 4 days after single i.p. injection",27%
same,reduction of H3K9me3 IR area,"H3K9me3; neurodegenerative mice, after 15 days",40%
same,reduction of H3K9me3 IR area,"H3K9me3; neurodegenerative old mice, 4 days after single i.p. injection",40%
same,H3K9me3,"H3K9me3; day 15, vs mice treated with DMSO",decreased
same,decrease in H3K9me3 irradiance,"H3K9me3; hippocampus, AD+ mice, vs AD+ mice administered DMSO",47%
same,"H3K9 expression (H3K9me3 repression mark), cell-specific","H3K9me3; neurons, astrocytes, and microglia macrophages, AD+ mice",reduced
same,freezing time,AD+ mice,increased
same,GFAP,GFAP,significant decrease
same,reduction of Iba-1+ microgliosis,[1],40%
same,delivery to the brain,Delivery to the brain,good delivery to the brain
